Data as given in patent US12002595B2, “Separation of metal ions by liquid-liquid extraction” (priority 2016, dated 2024).
Read-outs that look alike come from different tables or passages of the source.

How the values were obtained:
[1] = Persistence of the metal complex versus acidity; format: binding; conditions: Hf^4+
[2] = Extraction by HDEHP with 1 mM 343HOPO in 0.1 M HNO3 and 1.9 M NaNO3
Protocol: Aqueous phase: 1 mM 343HOPO in 0.1 M HNO3 and 1.9 M NaNO3. Organic phase: HDEHP in kerosene.
A log scale is used for clarity. See FIGS. 58A and 58B for results as a function of the phase ratio.
(§1) For Example 20—Example 24, pH measurements were performed with a glass electrode (Metrohm-Micro Combi-response to [H+]) calibrated at 25.0° C. using three NIST standards. Extraction samples were analyzed by liquid scintillation counting (LSC). The distribution coefficient, D(M), of a given metal, M, is defined in Eq. 1, where [M]organic and [M]aqueous are the respective total concentrations of M in the organic and aqueous layers, after extraction. Both concentrations are proportional to the volumetric activity (in Bq/L) determined by LSC. The separation factor, SFM1/M2, between two metals, M1 and M2, and extraction yield were calculated according to Eq. 2 and Eq. 3, respectively.
In a typical experiment, the solvent (extractant diluted in kerosene) was pre-conditioned by shaking one volume of solvent with three volumes of aqueous phase (typically HNO3) at room temperature for 1 h, thrice. For radioisotope extractions, at least 400 μL aqueous phase (typically containing HNO3, a chelator and a radioisotope) and solvent were placed in air-tight screw-capped plastic tubes, triply-contained, and shaken in a thermoshaker at 300 rpm, 25° C., for at least 30 min. Samples were then centrifuged for 5 min at 3000 rpm and phases separated before analysis. LSC analyses were performed on a Packard Tri-Carb B4430 instrument (Perkin Elmer) after mixing sample aliquots or sample dilution aliquots (10 to 200 μL) with 10 mL of scintillation cocktail (UltimaGold LLT). Samples were counted for at least 6 min and results were background subtracted. The analytical samples contained between 0 and 800,000 CPM. Mixtures of ^249Bk and ^249Cf were analyzed using α/β discrimination and energy windows were set to 0-50 keV for low-energy β particles of ^249Bk and 50-1000 keV for α particles of ^249Cf. ^243Am and ^225Ac samples were counted at secular equilibrium.

[3] = Extraction by HDEHP at constant pH with 3,4,3-LI(1,2-HOPO) as hold-back reagent; conditions: 1 mM ligand, 0.1 M HNO3/1.9 M NaNO3; for % Extraction: extraction of ^243Americium(III)
Protocol: (§2) In FIG. 26, aqueous phase: [ligand]=1 mM, buffer 0.1 M HNO3/1.9 M NaNO3. Organic phase: HDEHP diluted in kerosene. [HDEHP]=0.05, 0.10, 0.25, 0.50, 1.0, or 2.0 M. T=25° C. Volume organic phase/Volume aqueous phase=1. Initial metal concentrations: [Pu-242]=10 μM, [Am-243]=0.25 μM, or [Gd-153]=0.16 nM. Phases analyzed after one contact. Contact time: 30 min.
The separation factor values given here must been seen as lower limit since the extraction of Pu(IV) is near zero.
as §2, with “28,” for “26,”, “concentrations:” for “concentrations: [Pu-242]=10 μM,”, “min. Corresponding separation factors (SF) are given on the right Y-axis. SF Gd/Am=Ratio [Gd]/[Am] in the final organic phase/Ratio [Gd]/[Am] in the initial aqueous solution.” for “min.”

[4] = Back-extraction from 30% TBP in kerosene (modified PUREX) with 343HOPO; conditions: 1 mM 343HOPO, up to 8 M HNO3
Protocol: Dotted lines: separation factor U/Pu. Organic phase: 30% TBP in kerosene.
as §1
In a typical experiment, the solvent (extractant diluted in kerosene) was pre-conditioned by shaking one volume of solvent with three volumes of aqueous phase (typically HNO3) at room temperature for 1 h, thrice. […] Samples were counted for at least 6 min and results were background subtracted. […] Mixtures of ^249Bk and ^249Cf were analyzed using α/β discrimination and energy windows were set to 0-50 keV for low-energy β particles of ^249Bk and 50-1000 keV for α particles of ^249Cf. ^243Am and ^225Ac samples were counted at secular equilibrium.

[5] = Am^3+; 25° C.; cited from earlier work
[6] = Ligand selectivity from stability constants; format: binding
Excerpt: While this class of ligands, encompassing HOPO and catecholamide (CAM) derivatives, has been known for decades, it had never been studied in details for separation applications. In fact, a few exceptions aside, most of these chelators have only been studied with a single cation, such as Gd^3+, Th^4+, or Pu^4+, impairing broader evaluation of their metal-metal selectivity. The chemistry of some HOPO ligands was recently extended across the periodic table, highlighting their outstanding selectivity, and large superiority over polyaminocarboxylate chelators (IDA, EDTA, DTPA, etc.), typically encountered in separations (FIGS. 46A-46F). Stability constants (log βML) were calculated as described in Sturzbecher-Hoehne, M., Kullgren, B., Jarvis, E. E., An, D. D. & Abergel, R. J. Highly Luminescent and Stable Hydroxypyridinonate Complexes: A Step Towards New Curium Decontamination Strategies. Chem. Eur. J. 20, 9962-9968 (2014); Sturzbecher-Hoehne, M., Yang, P., D'Aldo, A. & Abergel, R. J. Intramolecular sensitization of americium luminescence in solution: shining light on short-lived forbidden 5f transitions. Dalton Trans. 45, 9912-9919 (2016); Deblonde, G. J.-P., Lohrey, T. D., An, D. D. & Abergel, R. J. Toxic heavy metal—Pb, Cd, Sn—complexation by the octadentate hydroxypyridinonate ligand archetype 3,4,3-LI(1,2-HOPO). New J. Chem. 42, 7649-7658 (2018). […]

[7] = Lu^3+; 25° C.; cited from earlier work
[8] = Th^4+; 25° C.; cited from earlier work

Row | SMILES | acidity range over which the ligand stays bound [1] | SFBk/Lu ([2]; single step, room temperature, HDEHP-HNO3-343HOPO system) | SF Gd^3+/Am^3+ ([3]; HDEHP 0.05 M) | % Extraction ([3]; HDEHP 0.05 M) | SF Gd^3+/Am^3+ ([3]; HDEHP 0.10 M) | % Extraction ([3]; HDEHP 0.10 M) | SF Gd^3+/Am^3+ ([3]; HDEHP 0.25 M) | % Extraction ([3]; HDEHP 0.25 M) | SF Gd^3+/Am^3+ ([3]; HDEHP 0.50 M) | % Extraction ([3]; HDEHP 0.50 M) | SF Gd^3+/Am^3+ ([3]; HDEHP 1.00 M) | % Extraction ([3]; HDEHP 1.00 M) | SF Gd^3+/Am^3+ ([3]; HDEHP 2.00 M) | % Extraction ([3]; HDEHP 2.00 M) | SFU/Pu [4] | log βML [5] | Ce^4+/Ce^3+ selectivity above what could be expected from a carboxylate ligand [6] | log βML [7] | log βML [8] | separation between Bk and Cf ([2]; chelator in place of 343HOPO, acidic conditions)
1 | O=C(NCCCN(CCCCN(CCCNC(=O)c1cccc(=O)n1O)C(=O)c1cccc(=O)n1O)C(=O)c1cccc(=O)n1O)c1cccc(=O)n1O [3,4,3-LI(1,2-HOPO)] | from pH 8 to strongly acidic solutions (at least 6 M HCl) | ≤ 320,000 | 24.1 | 0.21% | 23.3 | 1.32% | 25.3 | 10.08% | 27.0 | 30.27% | 45.6 | 49.98% | 99.8 | 57.29% | ≤ 5,800 | 20.4 ± 0.2 | about 15 orders of magnitude | 21.2 ± 0.1 | 40.1 ± 0.5 | –
2 | O=C(O)CN(CCN(CC(=O)O)CC(=O)O)CCN(CC(=O)O)CC(=O)O [DTPA, Diethylenetriaminepentaacetic acid, reference compound] | – | – | – | – | – | – | – | – | – | – | – | – | – | – | – | – | – | – | – | no separation at all
